Test results: ChEMBL document CHEMBL4433204, “Design, synthesis and docking study of novel picolinamide derivatives as anticancer agents and VEGFR-2 inhibitors” (Eur J Med Chem, 2019)
One block for each compound: values may come before it. Active and inactive are the calls of the source. No cut-off for these calls is given here.

Assays:
[1] = system: A549; test: Anticancer activity against human A549 cells assessed as reduction in cell viability incubated for 48 hrs by MTT assay; conditions: A549, 48 h
[2] = target: Hepatocyte growth factor receptor (Homo sapiens, UniProt P08581); test: Inhibition of human c-MET incubated for 2 hrs by ELISA method
[3] = target: Receptor tyrosine-protein kinase erbB-2 (Homo sapiens, UniProt P04626); test: Inhibition of human HER2 in human A549 cells by ELISA method; type: cell-based
[4] = target: Epidermal growth factor receptor (Homo sapiens, UniProt P00533); test: biochemical; type: cell-based, Sf9
[5] = system: HT-29; test: Anticancer activity against human HT-29 assessed as reduction in cell viability at 100 uM incubated for 48 hrs by MTT assay relative to control; type: functional
[6] = target: T1, Tyrosine-protein kinase Mer (Homo sapiens, UniProt Q12866); test: Inhibition of human MER incubated for 90 mins by ELISA method
T1 sequence (Q12866 whole entry): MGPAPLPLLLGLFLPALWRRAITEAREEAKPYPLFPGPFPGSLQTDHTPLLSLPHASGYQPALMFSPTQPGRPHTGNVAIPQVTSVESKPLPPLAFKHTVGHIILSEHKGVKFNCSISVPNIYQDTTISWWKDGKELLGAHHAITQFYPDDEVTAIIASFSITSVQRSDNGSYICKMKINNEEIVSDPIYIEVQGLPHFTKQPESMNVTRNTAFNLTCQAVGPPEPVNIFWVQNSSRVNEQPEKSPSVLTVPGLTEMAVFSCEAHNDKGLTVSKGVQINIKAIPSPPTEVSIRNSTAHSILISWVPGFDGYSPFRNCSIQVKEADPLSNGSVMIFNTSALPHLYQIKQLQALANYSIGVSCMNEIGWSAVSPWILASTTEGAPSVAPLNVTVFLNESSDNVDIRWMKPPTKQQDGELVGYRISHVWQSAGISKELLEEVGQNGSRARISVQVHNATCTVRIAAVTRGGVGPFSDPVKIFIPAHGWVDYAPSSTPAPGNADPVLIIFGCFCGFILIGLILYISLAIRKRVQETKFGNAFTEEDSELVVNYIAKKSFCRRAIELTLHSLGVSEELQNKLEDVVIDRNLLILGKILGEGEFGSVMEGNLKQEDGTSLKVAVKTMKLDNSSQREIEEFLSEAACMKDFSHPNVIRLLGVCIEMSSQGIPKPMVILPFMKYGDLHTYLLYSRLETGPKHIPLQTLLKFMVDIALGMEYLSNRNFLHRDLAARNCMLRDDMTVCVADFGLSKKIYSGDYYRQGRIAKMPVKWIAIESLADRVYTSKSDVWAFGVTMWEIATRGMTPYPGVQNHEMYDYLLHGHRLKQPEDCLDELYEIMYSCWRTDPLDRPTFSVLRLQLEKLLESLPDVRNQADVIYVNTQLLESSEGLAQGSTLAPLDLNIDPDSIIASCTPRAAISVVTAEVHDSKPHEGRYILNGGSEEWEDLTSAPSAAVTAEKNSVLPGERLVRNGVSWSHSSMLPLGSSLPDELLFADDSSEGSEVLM

[7] = system: PANC-1; test: Anticancer activity against human PANC1 assessed as reduction in cell viability at 100 uM incubated for 48 hrs by MTT assay relative to control; type: functional
[8] = target: Vascular endothelial growth factor receptor 2 (Homo sapiens, UniProt P35968); test: Inhibition of human VEGFR2 in human A549 cells incubated for over night by ELISA method; type: cell-based
[9] = system: A549; test: Cell cycle arrest in human A549 cells assessed as accumulation at S phase at 2 uM after 24 hrs by propidium iodide staining-based flow cytometric method (reference value: 26.79%); type: functional
[10] = system: PANC-1; test: Anticancer activity against human PANC1 assessed as reduction in cell viability incubated for 48 hrs by MTT assay; conditions: PANC-1, 48 h
[11] = system: A549; test: Cell cycle arrest in human A549 cells assessed as accumulation at G2/M phase at 2 uM after 24 hrs by propidium iodide staining-based flow cytometric method (reference value: 7.22%); type: functional
[12] = system: A549; test: Induction of apoptosis in human A549 cells assessed as early apoptotic cells at 2 uM after 24 hrs by Annexin V-FITC/propidium iodide double staining based flow cytometry (reference value: […]); type: functional
[13] = system: A549; test: Induction of apoptosis in human A549 cells assessed as measuring caspase-3 levels after 2 hrs by sandwich ELISA method (reference value: 57.22 pg/ml); type: functional
[14] = system: A549; test: Induction of apoptosis in human A549 cells assessed as late apoptotic cells at 2 uM after 24 hrs by Annexin V-FITC/propidium iodide double staining based flow cytometry (reference value: 0.11%); type: functional
[15] = system: OVCAR-3; test: Anticancer activity against human OVCAR3 assessed as reduction in cell viability incubated for 48 hrs by MTT assay; conditions: OVCAR-3, 48 h
[16] = system: A549; test: Induction of apoptosis in human A549 cells assessed as reduction in MCL-1 protein level after 2 hrs by sandwich ELISA method; type: functional, cell-based; conditions: A549, 2 h
[17] = system: A549; test: Induction of apoptosis in human A549 cells assessed as necrotic cells at 2 uM after 24 hrs by Annexin V-FITC/propidium iodide double staining based flow cytometry (reference value: 0.1%); type: functional
[18] = system: A549; test: Cell cycle arrest in human A549 cells assessed as accumulation at G0/G1 phase at 2 uM after 24 hrs by propidium iodide staining-based flow cytometric method (reference value: 65.63%); type: functional
[19] = system: A549; test: Cell cycle arrest in human A549 cells assessed as accumulation at pre-G1 phase at 2 uM after […] by propidium iodide staining-based flow cytometric method (reference value: 0.36%); type: functional
[20] = system: HT-29; test: Anticancer activity against human HT-29 assessed as reduction in cell viability incubated for 48 hrs by MTT assay; conditions: HT-29, 48 h
[21] = system: A549; test: Induction of apoptosis in human A549 cells assessed as viable cells at 2 uM after 24 hrs by Annexin V-FITC/propidium iodide double staining based flow cytometry (reference value: 97.87%); type: functional; conditions: A549, 24 h, read-out: Activity
[22] = system: OVCAR-3; test: Anticancer activity against human OVCAR3 assessed as reduction in cell viability at 100 uM incubated for 48 hrs by MTT assay relative to control; type: functional
[23] = system: 786-0; test: Anticancer activity against human 786-O assessed as reduction in cell viability at 100 uM incubated for 48 hrs by MTT assay relative to control; type: functional
[24] = system: A549; test: Induction of apoptosis in human A549 cells assessed as measuring caspase-3 levels after 2 hrs by sandwich ELISA method relative to control; type: functional
[25] = system: A549; test: Induction of apoptosis in human A549 cells assessed as total apoptotic cells at 2 uM after 24 hrs by Annexin V-FITC/propidium iodide double staining based flow cytometry relative to control; type: functional

Sequence of Hepatocyte growth factor receptor (P08581 whole entry): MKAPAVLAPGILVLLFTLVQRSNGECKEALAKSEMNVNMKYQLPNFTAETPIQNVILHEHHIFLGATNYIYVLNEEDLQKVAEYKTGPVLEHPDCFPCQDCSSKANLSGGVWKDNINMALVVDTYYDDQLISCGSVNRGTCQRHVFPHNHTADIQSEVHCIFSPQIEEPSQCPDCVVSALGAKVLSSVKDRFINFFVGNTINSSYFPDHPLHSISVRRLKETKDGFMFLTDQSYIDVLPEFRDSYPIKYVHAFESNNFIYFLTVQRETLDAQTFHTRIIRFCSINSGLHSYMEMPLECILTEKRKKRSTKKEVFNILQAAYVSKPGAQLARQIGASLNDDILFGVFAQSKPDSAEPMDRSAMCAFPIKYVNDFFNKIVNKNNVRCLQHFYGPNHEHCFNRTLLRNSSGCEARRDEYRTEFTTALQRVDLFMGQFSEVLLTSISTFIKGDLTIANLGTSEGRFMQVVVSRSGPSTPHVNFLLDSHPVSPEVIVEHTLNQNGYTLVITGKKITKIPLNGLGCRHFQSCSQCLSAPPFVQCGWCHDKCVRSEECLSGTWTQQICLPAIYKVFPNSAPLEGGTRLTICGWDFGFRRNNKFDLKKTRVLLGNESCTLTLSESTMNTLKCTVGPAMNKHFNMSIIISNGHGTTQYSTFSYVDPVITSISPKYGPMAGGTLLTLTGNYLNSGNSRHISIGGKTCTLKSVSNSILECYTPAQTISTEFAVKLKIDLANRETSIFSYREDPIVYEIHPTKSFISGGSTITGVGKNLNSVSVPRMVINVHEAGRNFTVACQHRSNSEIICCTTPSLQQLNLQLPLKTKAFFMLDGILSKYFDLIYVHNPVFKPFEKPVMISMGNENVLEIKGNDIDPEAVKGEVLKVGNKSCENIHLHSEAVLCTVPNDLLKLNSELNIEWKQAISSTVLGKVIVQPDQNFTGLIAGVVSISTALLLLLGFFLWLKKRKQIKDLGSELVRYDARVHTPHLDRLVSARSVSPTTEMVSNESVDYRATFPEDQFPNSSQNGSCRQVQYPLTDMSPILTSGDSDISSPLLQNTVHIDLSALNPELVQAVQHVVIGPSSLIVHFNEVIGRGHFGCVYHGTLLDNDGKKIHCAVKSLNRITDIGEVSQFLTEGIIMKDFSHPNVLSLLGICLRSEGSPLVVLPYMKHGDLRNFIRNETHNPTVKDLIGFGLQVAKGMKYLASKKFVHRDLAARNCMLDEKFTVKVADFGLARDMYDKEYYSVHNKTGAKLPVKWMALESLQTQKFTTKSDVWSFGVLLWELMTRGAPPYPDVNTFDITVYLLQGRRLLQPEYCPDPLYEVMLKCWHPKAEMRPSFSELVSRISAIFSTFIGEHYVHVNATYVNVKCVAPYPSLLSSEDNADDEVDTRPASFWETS
Sequence of Vascular endothelial growth factor receptor 2 (P35968 whole entry): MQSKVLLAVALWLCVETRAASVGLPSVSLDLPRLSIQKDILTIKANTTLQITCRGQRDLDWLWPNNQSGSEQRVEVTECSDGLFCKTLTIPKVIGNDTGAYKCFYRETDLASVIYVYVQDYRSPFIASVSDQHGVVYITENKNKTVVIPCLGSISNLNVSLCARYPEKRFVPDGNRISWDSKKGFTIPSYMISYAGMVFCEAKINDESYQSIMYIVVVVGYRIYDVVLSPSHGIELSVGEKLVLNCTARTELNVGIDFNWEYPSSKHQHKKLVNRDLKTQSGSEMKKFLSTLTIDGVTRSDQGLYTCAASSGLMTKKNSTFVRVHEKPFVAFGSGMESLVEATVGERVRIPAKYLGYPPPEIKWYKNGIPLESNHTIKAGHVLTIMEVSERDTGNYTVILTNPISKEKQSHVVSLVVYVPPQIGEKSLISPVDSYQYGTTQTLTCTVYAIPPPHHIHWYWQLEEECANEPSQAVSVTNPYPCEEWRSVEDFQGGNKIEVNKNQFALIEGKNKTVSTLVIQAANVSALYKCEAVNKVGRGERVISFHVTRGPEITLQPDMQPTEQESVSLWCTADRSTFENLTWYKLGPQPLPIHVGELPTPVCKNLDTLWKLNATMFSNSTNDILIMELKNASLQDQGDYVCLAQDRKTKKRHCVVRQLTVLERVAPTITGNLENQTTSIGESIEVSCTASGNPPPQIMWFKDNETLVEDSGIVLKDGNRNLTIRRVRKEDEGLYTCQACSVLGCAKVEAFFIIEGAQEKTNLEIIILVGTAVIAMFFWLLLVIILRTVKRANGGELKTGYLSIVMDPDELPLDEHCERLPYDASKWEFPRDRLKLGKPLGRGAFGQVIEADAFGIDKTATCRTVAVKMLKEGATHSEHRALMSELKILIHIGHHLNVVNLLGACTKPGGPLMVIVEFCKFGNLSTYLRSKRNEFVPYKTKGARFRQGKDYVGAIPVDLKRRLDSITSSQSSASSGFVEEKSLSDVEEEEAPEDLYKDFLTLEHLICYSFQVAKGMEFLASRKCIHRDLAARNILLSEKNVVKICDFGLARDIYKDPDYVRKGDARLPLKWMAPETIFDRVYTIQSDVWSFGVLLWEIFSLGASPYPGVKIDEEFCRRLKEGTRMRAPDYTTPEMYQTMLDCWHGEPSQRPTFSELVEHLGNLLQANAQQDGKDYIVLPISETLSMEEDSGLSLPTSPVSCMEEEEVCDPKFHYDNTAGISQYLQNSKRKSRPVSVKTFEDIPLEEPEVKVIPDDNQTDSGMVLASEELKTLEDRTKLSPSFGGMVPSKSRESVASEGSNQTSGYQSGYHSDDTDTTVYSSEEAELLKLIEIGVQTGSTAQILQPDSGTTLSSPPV
Sequence of Epidermal growth factor receptor (P00533 whole entry): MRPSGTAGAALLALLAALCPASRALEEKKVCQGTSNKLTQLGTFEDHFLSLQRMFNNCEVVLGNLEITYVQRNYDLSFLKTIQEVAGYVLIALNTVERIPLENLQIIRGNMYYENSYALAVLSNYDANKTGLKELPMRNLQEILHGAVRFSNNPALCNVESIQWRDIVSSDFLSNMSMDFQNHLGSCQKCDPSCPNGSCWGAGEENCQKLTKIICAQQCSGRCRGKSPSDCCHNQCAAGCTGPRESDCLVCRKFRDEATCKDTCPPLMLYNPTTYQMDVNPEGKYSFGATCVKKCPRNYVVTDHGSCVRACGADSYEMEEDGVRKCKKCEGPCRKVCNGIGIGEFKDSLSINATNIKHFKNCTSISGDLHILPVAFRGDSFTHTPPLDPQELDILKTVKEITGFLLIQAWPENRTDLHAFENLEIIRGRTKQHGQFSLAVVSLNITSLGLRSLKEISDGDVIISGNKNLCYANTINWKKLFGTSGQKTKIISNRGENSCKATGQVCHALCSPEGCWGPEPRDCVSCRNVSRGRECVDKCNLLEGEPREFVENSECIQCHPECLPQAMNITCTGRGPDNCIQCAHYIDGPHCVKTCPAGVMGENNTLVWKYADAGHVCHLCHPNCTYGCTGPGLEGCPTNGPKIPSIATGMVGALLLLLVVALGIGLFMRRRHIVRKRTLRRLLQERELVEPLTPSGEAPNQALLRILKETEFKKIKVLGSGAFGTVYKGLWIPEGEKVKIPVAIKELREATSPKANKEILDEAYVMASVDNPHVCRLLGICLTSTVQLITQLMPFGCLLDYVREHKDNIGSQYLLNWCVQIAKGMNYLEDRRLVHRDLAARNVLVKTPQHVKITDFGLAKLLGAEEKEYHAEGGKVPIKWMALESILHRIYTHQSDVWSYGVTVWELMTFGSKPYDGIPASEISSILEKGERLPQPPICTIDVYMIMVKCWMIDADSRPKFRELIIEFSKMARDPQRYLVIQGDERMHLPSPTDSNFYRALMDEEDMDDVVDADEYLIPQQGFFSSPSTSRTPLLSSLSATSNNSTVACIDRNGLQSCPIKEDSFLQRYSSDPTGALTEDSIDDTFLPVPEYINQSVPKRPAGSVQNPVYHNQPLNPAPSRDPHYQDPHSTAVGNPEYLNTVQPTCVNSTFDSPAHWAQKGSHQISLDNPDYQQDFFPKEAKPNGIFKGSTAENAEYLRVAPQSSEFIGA

IC50 [1]: 460 nM
SMILES: O=C(CCSC(=S)N1CCN(c2ncccn2)CC1)Nc1cccc(NC(=O)c2ccccn2)c1

IC50 [1]: 4120 nM
SMILES: O=C(CCSC(=S)N1CCCCC1)Nc1cccc(NC(=O)c2ccccn2)c1

IC50 [1]: 3720 nM
SMILES: CCN1CCN(C(=S)SCC(=O)Nc2cccc(NC(=O)c3ccccn3)c2)CC1

IC50 [1]: 50 nM
SMILES: O=C(CSC(=S)N1CCOCC1)Nc1cccc(NC(=O)c2ccccn2)c1

IC50 [2]: 17900 nM
IC50 [3]: 54 nM
IC50 [4]: 70 nM
IC50 [1]: 31700 nM
IC50 [6]: 3120 nM
IC50 [8]: 94 nM
SMILES: O=C(CCSC(=S)N1CCN(c2ccccc2)CC1)Nc1cccc(NC(=O)c2ccccn2)c1
Activity [5]: Active
Activity [7]: Active

IC50 [1]: 1340 nM
SMILES: CN1CCN(C(=S)SCC(=O)Nc2cccc(NC(=O)c3ccccn3)c2)CC1

IC50 [1]: 390 nM
SMILES: O=C(CSC(=S)N1CCN(C2CCCCC2)CC1)Nc1cccc(NC(=O)c2ccccn2)c1

IC50 [1]: 40 nM
SMILES: O=C(CSC(=S)N1CCN(c2ncccn2)CC1)Nc1cccc(NC(=O)c2ccccn2)c1

IC50 [1]: 180 nM
SMILES: CC(C)(C)OC(=O)N1CCN(C(=S)SCC(=O)Nc2cccc(NC(=O)c3ccccn3)c2)CC1

IC50 [1]: 210 nM
SMILES: C=CCN1CCN(C(=S)SCC(=O)Nc2cccc(NC(=O)c3ccccn3)c2)CC1

IC50 [1]: 2420 nM
SMILES: O=C(CCSC(=S)N1CCOCC1)Nc1cccc(NC(=O)c2ccccn2)c1

IC50 [2]: 8300 nM
IC50 [3]: 104 nM
IC50 [4]: 84 nM
IC50 [16]: 6700 nM
IC50 [1]: 320 nM
IC50 [6]: 3950 nM
IC50 [8]: 27 nM
SMILES: O=C(CSC(=S)N1CCCCC1)Nc1cccc(NC(=O)c2ccccn2)c1
Activity [9]: 16.66%
Activity [11]: 17.36%
Activity [12]: 5.01%
Activity [13]: 505.4 pg/mL
Activity [14]: 7.72%
fold change (FC) [24]: 8.833
Activity [5]: Active
Activity [17]: 1.33%
Activity [7]: Active
Activity [18]: 52.92%
Activity [19]: 13.06%
fold change (FC) [25]: 49
viability at 2 µM [21]: 85.2%

IC50 [1]: 530 nM
SMILES: O=C(CSC(=S)N1CCN(c2ccccc2)CC1)Nc1cccc(NC(=O)c2ccccn2)c1

The remaining lines, values behind:

SMILES: O=C(Nc1cccc(NC(=O)c2ccccn2)c1)Nc1ccc2ccccc2c1
IC50 [1]: 240 nM

SMILES: Cc1ccc(NC(=O)Nc2cccc(NC(=O)c3ccccn3)c2)cc1
IC50 [1]: 20 nM

SMILES: O=C(Nc1cccc(NC(=S)Nc2ccc([N+](=O)[O-])cc2)c1)c1ccccn1
IC50 [1]: 450 nM

SMILES: O=C(NCc1ccccc1)Nc1cccc(NC(=O)c2ccccn2)c1
IC50 [1]: 2990 nM

SMILES: O=C(Nc1ccccc1)Nc1cccc(NC(=O)c2ccccn2)c1
IC50 [1]: 5190 nM

SMILES: O=C(Nc1ccc(Cl)cc1)Nc1cccc(NC(=O)c2ccccn2)c1
IC50 [1]: 3620 nM

SMILES: O=C(Nc1cccc(NC(=S)Nc2ccccc2)c1)c1ccccn1
IC50 [1]: 4400 nM

SMILES: O=C(Nc1ccc([N+](=O)[O-])cc1)Nc1cccc(NC(=O)c2ccccn2)c1
IC50 [1]: 320 nM

SMILES: O=C(Nc1cccc(Cl)c1)Nc1cccc(NC(=O)c2ccccn2)c1
IC50 [1]: 2850 nM

SMILES: CNC(=O)c1cc(Oc2ccc(NC(=O)Nc3ccc(Cl)c(C(F)(F)F)c3)cc2)ccn1 [SORAFENIB]
Activity [9]: 15.51%
IC50 [10]: 20000 nM
Activity [11]: 23.14%
Activity [12]: 6.18%
Activity [13]: 515 pg/mL
Activity [14]: 8.62%
IC50 [15]: 12000 nM
IC50 [16]: 5530 nM
IC50 [1]: 750 nM
Activity [17]: 1.42%
Activity [18]: 45.13%
Activity [19]: 16.22%
IC50 [20]: 10000 nM
viability at 2 µM [21]: 82%

SMILES: O=C(Nc1cccc(NC(=O)c2ccccn2)c1)NC1CCCCC1
IC50 [2]: 6220 nM
Activity [22]: <=50%
IC50 [3]: 64 nM
IC50 [4]: 147 nM
Activity [5]: <=50%
Activity [23]: <=50%
IC50 [1]: 6260 nM
IC50 [6]: 2630 nM
Activity [7]: <=50%
IC50 [8]: 87 nM
